Tests used:
human RORγt-LBD = biological target: T1, human RORγt-LBD (Homo sapiens, UniProt P51449); assay: TR-FRET RIP140 co-activator peptide displacement from RORγt-LBD; type: biochemical; conditions: 1 h incubation, read-out: IC50, disruption of RIP140 peptide interaction with RORγt-LBD
T1 construct: human RORγt-LBD (264-518, produced at Novartis); made in house
T1 sequence (P51449 264-518): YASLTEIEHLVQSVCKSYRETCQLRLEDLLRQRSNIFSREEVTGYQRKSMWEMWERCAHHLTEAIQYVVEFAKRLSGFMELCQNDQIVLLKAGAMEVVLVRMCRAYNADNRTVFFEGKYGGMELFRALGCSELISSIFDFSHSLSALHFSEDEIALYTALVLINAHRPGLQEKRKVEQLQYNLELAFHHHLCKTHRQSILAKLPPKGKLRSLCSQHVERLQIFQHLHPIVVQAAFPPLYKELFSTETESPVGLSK
Description: Compound-mediated disruption of the interaction between the human RORγt-LBD (264-518, produced at Novartis) with a biotinylated RIP140 derived co-activator peptide (biotinyl-NH-Ahx-[…]-CONH2, Thermo Scientific) was quantified by TR-FRET as previously described ([34], [44]). Briefly, Cpd A was incubated with a mixture consisting of 6 nM His6-tagged RORγt-LBD, 90 nM biotinylated RIP140 co-activator peptide, 0.45 nM Cy5-labeled streptavidin (GE Healthcare), 1.5 nM Europium-labeled anti-His6 antibody (Perkin Elmer). After 1 h of incubation, the emissions were measured at 615 and 665 nm. Concentration-response curves were generated and IC50 values were calculated using the GraphPad Prism software package.

RORβ = tested on: T2, RORβ; assay: RORβ LBD-GAL4 reporter gene assay in Jurkat cells; type: cell-based, human
T2 construct: RORα and RORβ we performed LBD-GAL4 reporter gene assays; expressed in transfected cells; host or cells: Jurkat cells stably carrying pGL4.35
Description: Selectivity against other ROR family members was assessed in a GAL4 reporter gene assay as previously described ([44]). Briefly, Jurkat cells stably expressing the pGL4.35 plasmid (Promega) containing nine GAL4 binding sites inducing the transcription of the luciferase reporter gene were transiently transfected with the human RORα, RORβ or RORγt-LBD/GAL4-DBD constructs. After 24 h post-transfection, cells were incubated with Cpd A for an additional 24 h before luciferase activity was determined using an EnVision Multilabel Plate Reader (Perkin Elmer).

full-length RORγt = biological target: T3, full-length RORγt (Homo sapiens, UniProt P51449); assay: 4 x RORE luciferase reporter assay in HUT78 T-cells expressing full-length RORγt; type: cell-based; conditions: CD3 antibody plus PMA, 48 h, read-out: IC50, 4 x RORE-driven luciferase activity
T3 construct: HUT78 T-cells stably expressing full-length eGFP-RORγt; eGFP; expressed in transfected cells
T3 sequence (P51449 1-497 isoform P51449-2): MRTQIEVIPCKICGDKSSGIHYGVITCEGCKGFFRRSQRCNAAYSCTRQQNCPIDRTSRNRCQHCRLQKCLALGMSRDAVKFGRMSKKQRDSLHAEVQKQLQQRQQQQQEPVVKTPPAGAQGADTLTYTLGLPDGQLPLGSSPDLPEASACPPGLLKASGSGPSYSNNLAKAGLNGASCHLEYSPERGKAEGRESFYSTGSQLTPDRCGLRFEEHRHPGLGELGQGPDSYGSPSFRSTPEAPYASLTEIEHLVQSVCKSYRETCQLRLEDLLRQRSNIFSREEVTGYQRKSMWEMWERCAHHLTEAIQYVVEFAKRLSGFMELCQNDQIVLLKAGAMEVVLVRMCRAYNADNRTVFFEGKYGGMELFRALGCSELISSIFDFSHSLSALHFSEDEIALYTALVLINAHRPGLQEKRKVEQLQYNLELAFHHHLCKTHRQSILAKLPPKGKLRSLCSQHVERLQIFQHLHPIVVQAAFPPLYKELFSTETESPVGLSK
Source text: HUT78 T-cells stably expressing full-length eGFP-RORγt or eGFP-empty vector were generated as described before ([45]). Cells were transfected with plasmids containing 4 × ROREs inserted into the pGL4.17 luciferase Firefly reporter plasmid (kindly provided by Dr. Juergen Reinhardt, Novartis). As a control construct, a mutated or a non-functional form of 4 × RORE (Mut-RORE), was transfected in eGFP-RORγt HUT78 T-cells. The plasmids contained the following sequences where the bold nucleotides represent the putative RORγt binding site or the mutated form of the RORE:
Two days after transfection, cells were incubated in X-vivo 15 medium containing 10% FCS and 700 μg/ml Geneticin (Corning) and stable clones expressing the 4 × ROREs or mutated-ROREs were obtained by limiting dilution. The luciferase expression of the individual cell clones was measured using Luciferase detection buffer (Perkin Elmer) and the RORC mRNA expression of the selected clones were quantified by qRT-PCR. […]

[1] = tested on: memory human CD4+ T-cells; assay: Th17 polarization of memory CD4+ T-cells, IL-17A ELISA; type: cell-based; conditions: T-cell, 168 h, Th17 differentiation 7 days, read-out: IC50, IL-17A secretion
Description: Total, naive and memory CD4^+ T cells were isolated from Peripheral blood mononuclear cells (PBMCs) from healthy volunteers by density gradient centrifugation using Ficoll Paque (GE). Total, naive or memory CD4^+ T-cells were prepared by immunomagnetic separation using the respective CD4^+ T-cell enrichment kits resulting in untouched highly purified subsets (EasySep™, Stem Cell). Purity was assessed by flow cytometry and was between 95 and 98% for the total CD4^+ T-cells. The purity of naive (CD45RA^+CD45RO^−) and memory (CD45RA^−CD45RO^+) CD4^+T-cells ranged between 95 and 98%, respectively. For T-cell stimulation experiments, cells were treated as previously published ([44]). Briefly, T-cells were stimulated with plate-bound monoclonal antibodies against CD3 (1 μg/ml, clone OKT-3, BioXcell) and CD28 (1 μg/ml, clone CD28.2, BioLegend). For Th17 polarization assays, IL-6 (20 ng/ml), TGF-β1 (5 ng/ml), IL-1β (10 ng/ml), and IL-23 (10 ng/ml) were added. For Th1 polarization assays, IL-12 (10 ng/ml) and anti-IL-4 antibody (5 μg/ml), for Th2 polarizations, IL-4 (10 ng/ml) and anti-IFN-γ antibody (5 μg/ml) were added. For Th0 polarization assays, cells were only stimulated with CD3 and CD28 antibodies. […] Cytokine concentrations were quantified by ELISA according to the manufacturer's instructions (eBioscience or BioLegend).

IC50 (human RORγt-LBD): 5.7 nM
IC50 (full-length RORγt): 64 nM
IC50 [1]: 27 nM
Compound: Cc1ccc(C(=O)Nc2cn3ccnc3c(CN3CCN(c4noc(C(C)(C)C)n4)[C@@H](C)C3)c2C)cn1 [Cpd A, (S)-N-(8-((4-(5-(tert-butyl)-1,2,4-oxadiazol-3-yl)-3-methylpiperazin-1-yl)methyl)-7-methylimidazo[1,2-a]pyridin-6-yl)-6-methylnicotinamide]
activity toward RORβ (LBD-GAL4 reporter) (RORβ): lacked activity

Source: PMC6443933, “Antagonizing Retinoic Acid-Related-Orphan Receptor Gamma Activity Blocks the T Helper 17/Interleukin-17 Pathway Leading to Attenuated Pro-inflammatory Human Keratinocyte and Skin Responses” (Frontiers in Immunology, 2019)
